Measurements taken from ChEMBL document CHEMBL1157694, “Synthesis of a new cytotoxic cephalostatin/ritterazine analogue from hecogenin and 22-epi-hippuristanol” (2010).

Legend:
Assay type in all cases: functional
MDA-MB-231 = assay: Growth inhibition of human MDA-MB-231 cells after 72 hrs by sulforhodamine B assay; conditions: MDA-MB-231, 72 h
A549 = assay: Growth inhibition of human A549 cells after 72 hrs by sulforhodamine B assay; conditions: A549, 72 h
HT-29 = assay: Growth inhibition of human HT-29 cells after 72 hrs by sulforhodamine B assay; conditions: HT-29, 72 h

GI50 (MDA-MB-231) [nM] | GI50 (A549) [nM] | GI50 (HT-29) [nM] | Structure (SMILES)
2000 | 1600 | 1600 | C[C@H]1CC[C@@]2(OC1)O[C@H]1C[C@H]3[C@@H]4CC[C@H]5Cc6nc7c(nc6C[C@]5(C)[C@H]4CC(=O)[C@]3(C)[C@H]1[C@@H]2C)C[C@@H]1CC[C@H]2[C@@H]3C[C@@H]4O[C@]5(C[C@H](C)C(C)(C)O5)[C@](C)(O)[C@@H]4[C@@]3(C)CC(=O)[C@@H]2[C@@]1(C)C7
2600 | 1700 | 2100 | C[C@H]1CC[C@@]2(OC1)O[C@H]1C[C@H]3[C@@H]4CC[C@H]5Cc6nc7c(nc6C[C@]5(C)[C@H]4CC(=O)[C@]3(C)[C@H]1[C@@H]2C)C[C@@H]1CC[C@@H]2[C@H](CC(=O)[C@]3(C)[C@@H]4[C@H](C[C@@H]23)O[C@]2(CC[C@H](C)CO2)[C@H]4C)[C@@]1(C)C7

Structure (SMILES) | GI50 (MDA-MB-231) [nM] | GI50 (A549) [nM] | GI50 (HT-29) [nM]
C[C@H]1C[C@]2(O[C@H]3C[C@H]4[C@@H]5CC[C@H]6C[C@H](O)CC[C@]6(C)[C@H]5[C@@H](O)C[C@]4(C)[C@H]3[C@@]2(C)O)OC1(C)C [EPIHIPPURISTANOL] | 5600 | 3200 | 4500
